Laboratory results published in BindingDB's records for doi:10.1016/j.ejmech.2009.09.045 (Sri Venkateswara University, 2010).

Target: T1, Catalase (Rattus norvegicus, UniProt P04762)
T1 sequence (P04762 whole entry): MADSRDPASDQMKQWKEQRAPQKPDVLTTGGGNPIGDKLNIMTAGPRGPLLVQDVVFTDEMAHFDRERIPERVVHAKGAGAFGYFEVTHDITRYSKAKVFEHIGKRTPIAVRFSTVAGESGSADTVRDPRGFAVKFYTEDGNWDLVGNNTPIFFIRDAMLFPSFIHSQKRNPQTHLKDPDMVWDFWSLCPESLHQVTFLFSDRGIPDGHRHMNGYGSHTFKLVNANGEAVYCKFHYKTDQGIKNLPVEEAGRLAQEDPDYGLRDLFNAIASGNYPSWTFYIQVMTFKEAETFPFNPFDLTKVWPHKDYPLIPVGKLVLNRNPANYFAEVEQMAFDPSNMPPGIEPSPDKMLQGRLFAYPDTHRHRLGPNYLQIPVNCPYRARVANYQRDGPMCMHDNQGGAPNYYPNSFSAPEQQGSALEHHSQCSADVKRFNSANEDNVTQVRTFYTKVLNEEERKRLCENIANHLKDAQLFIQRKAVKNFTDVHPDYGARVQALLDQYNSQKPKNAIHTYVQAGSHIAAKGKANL
Assay: Inhibition of catalase in Wistar rat brain

SMILES | EC50 [µM]
COc1ccc2c3c1O[C@H]1C[C@@H](OP(=O)(OCCO)N(CCCl)CCCl)C=C[C@@]31CCN(C)C2 (some centres not stated) | 4.12
COc1ccc2c3c1O[C@H]1C[C@@H](OP(=O)(NCCO)N(CCCl)CCCl)C=C[C@@]31CCN(C)C2 (some centres not stated) | 2.84
COc1ccc2c3c1O[C@H]1C[C@@H](OP(=O)(SCCO)N(CCCl)CCCl)C=C[C@@]31CCN(C)C2 (some centres not stated) | 3.02
COc1ccc2c3c1O[C@H]1C[C@@H](OP(=O)(NCCN)N(CCCl)CCCl)C=C[C@@]31CCN(C)C2 (some centres not stated) | 5.11
COc1ccc2c3c1O[C@H]1C[C@@H](OP(=O)(NCCO)Oc4ccc([N+](=O)[O-])cc4)C=C[C@@]31CCN(C)C2 (some centres not stated) | 9.29
COc1ccc2c3c1O[C@H]1C[C@@H](OP(=O)(NCCN)Oc4ccc([N+](=O)[O-])cc4)C=C[C@@]31CCN(C)C2 (some centres not stated) | 3.41
COc1ccc2c3c1O[C@H]1C[C@@H](OP(=O)(OCCO)Oc4ccc([N+](=O)[O-])cc4)C=C[C@@]31CCN(C)C2 (some centres not stated) | 6.15
COc1ccc2c3c1O[C@H]1C[C@@H](OP(=O)(OP(=O)(O)O)N(CCCl)CCCl)C=C[C@@]31CCN(C)C2 (some centres not stated) | 3.81
COc1ccc2c3c1O[C@H]1C[C@@H](OP(=O)(Oc4ccc([N+](=O)[O-])cc4)SCCO)C=C[C@@]31CCN(C)C2 (some centres not stated) | 7.74
COc1ccc2c3c1O[C@H]1C[C@@H](OP(=O)(Oc4ccc([N+](=O)[O-])cc4)OP(=O)(O)O)C=C[C@@]31CCN(C)C2 (some centres not stated) | 5.13
Cc1c(C)c2c(c(C)c1O)CC[C@@](C)(CCC[C@H](C)CCC[C@H](C)CCCC(C)C)O2 [CHEBI:18145] | 3.43
COc1ccc2c3c1O[C@H]1C[C@@H](O)C=C[C@@]31CCN(C)C2 [galantamine] | 17.6
